# Test system: healthy females
# Test: Phase 1 FIH single ascending dose study: safety and tolerability (AEs)
# Format: in vivo, human
# Description: The study was a double-blind, randomized, placebo-controlled Phase 1 single ascending dose study in up to 6 cohorts in healthy females. Eligibility was assessed during a screening period of up to 28 days prior to enrollment. For the treatment period, subjects were admitted to the clinical research unit (CRU) one day prior to the dosing (Day −1). On Day 1, all subjects will received the assigned SC dose of RE104 HCl or placebo in a fed state (after domiciling overnight and consuming a planned evening meal on Day −1 and morning meal on Day 1 while at the CRU). Subjects were allowed to select snacks from a planned menu from 4 hours following dosing. Subjects were discharged from the clinic on Day 2 (−24 hours post-dose) after all required study procedures were completed and if deemed medically fit. Subjects returned to the clinic on Day 10 (±2 days) for a follow up visit.
# Six (6) cohorts were enrolled in the study. Six (6) single doses were tested in 6 cohorts (Cohort 1 to Cohort 6) of 8 healthy female subjects (6 active and 2 placebo), as indicated in FIG. 1 and Table 3.
# The starting dose was 5.5 mg RE104 HCl. Sentinels were used in all cohorts. Within each cohort, 2 subjects were treated first: 1 subject received RE104 HCl and 1 subject received placebo.
# The study was monitored by a safety review committee (SRC). […] Safety, tolerability, and available PK data were assessed by the SRC between each cohort before ascending to the next dose level (Table 3). After each cohort dosing was complete, the SRC met to discuss dose escalation. Escalation to the next higher dose level occurred only after evaluation of the safety and tolerability data up to and including at least 24 hours post-dose of all evaluable subjects in the previous dose cohort. Available PK results were requested for determination of dose escalation, as deemed necessary.
# Dosing took place at a time point agreed to with the investigational pharmacy and acceptable to the investigator. RE104 HCl or placebo were administered as a SC injection in the upper arm. Subjects received RE104 HCl or placebo in a fed state. The time of administration of RE104 HCl or placebo was be recorded in the eCRF. The regimen used is outlined in Table 3.
# Within each cohort, 2 sentinel subjects were treated first: 1 subject received RE104 HCl and 1 subject received placebo. […] All drug administration was be done under direct medical supervision. Study subjects were overseen during the potentially psychoactive study drug period by professionals trained to monitor psychedelic experiences.
compound,measurement,setting,value
CC(C)N(CCc1c[nH]c2cccc(OC(=O)CCCC(=O)O)c12)C(C)C [RE104],AE Abdominal pain,"RE104 5.5 mg, n = 6",0 n (%)
same,AE Agitation,"RE104 5.5 mg, n = 6",0 n (%)
same,AE Diarrhea,"RE104 5.5 mg, n = 6",0 n (%)
same,AE Distress,"RE104 5.5 mg, n = 6",0 n (%)
same,AE Fatigue,"RE104 5.5 mg, n = 6",0 n (%)
same,AE Feeling hot,"RE104 5.5 mg, n = 6",0 n (%)
same,AE Headache,"RE104 5.5 mg, n = 6",0 n (%)
same,AE Heart rate increased,"RE104 5.5 mg, n = 6",0 n (%)
same,AE Hyperhidrosis,"RE104 5.5 mg, n = 6",0 n (%)
same,AE Muscle twitching,"RE104 5.5 mg, n = 6",0 n (%)
same,AE Musculoskeletal injury,"RE104 5.5 mg, n = 6",0 n (%)
same,AE Nausea,"RE104 5.5 mg, n = 6",1 (16.7) n (%)
same,AE Restlessness,"RE104 5.5 mg, n = 6",0 n (%)
same,AE Sinus tachycardia,"RE104 5.5 mg, n = 6",0 n (%)
same,AE Thirst,"RE104 5.5 mg, n = 6",0 n (%)
same,AE Tremor,"RE104 5.5 mg, n = 6",0 n (%)
same,AE Vomiting,"RE104 5.5 mg, n = 6",1 (16.7) n (%)
same,AEs leading to,"RE104 5.5 mg, n = 6",0 n (%)
same,Any AE,"RE104 5.5 mg, n = 6",2 (33.3) n (%)
same,Any SAE,"RE104 5.5 mg, n = 6",0 n (%)
same,Severe AEs,"RE104 5.5 mg, n = 6",0 n (%)
same,AE Abdominal pain,"RE104 11 mg, n = 6",0 n (%)
same,AE Agitation,"RE104 11 mg, n = 6",0 n (%)
same,AE Diarrhea,"RE104 11 mg, n = 6",0 n (%)
same,AE Distress,"RE104 11 mg, n = 6",0 n (%)
same,AE Fatigue,"RE104 11 mg, n = 6",0 n (%)
same,AE Feeling hot,"RE104 11 mg, n = 6",0 n (%)
same,AE Headache,"RE104 11 mg, n = 6",1 (16.7) n (%)
same,AE Heart rate increased,"RE104 11 mg, n = 6",0 n (%)
same,AE Hyperhidrosis,"RE104 11 mg, n = 6",0 n (%)
same,AE Muscle twitching,"RE104 11 mg, n = 6",0 n (%)
same,AE Musculoskeletal injury,"RE104 11 mg, n = 6",0 n (%)
same,AE Nausea,"RE104 11 mg, n = 6",2 (33.3) n (%)
same,AE Restlessness,"RE104 11 mg, n = 6",0 n (%)
same,AE Sinus tachycardia,"RE104 11 mg, n = 6",0 n (%)
same,AE Thirst,"RE104 11 mg, n = 6",0 n (%)
same,AE Tremor,"RE104 11 mg, n = 6",0 n (%)
same,AE Vomiting,"RE104 11 mg, n = 6",0 n (%)
same,AEs leading to,"RE104 11 mg, n = 6",0 n (%)
same,Any AE,"RE104 11 mg, n = 6",2 (33.3) n (%)
same,Any SAE,"RE104 11 mg, n = 6",0 n (%)
same,Severe AEs,"RE104 11 mg, n = 6",0 n (%)
same,AE Abdominal pain,"RE104 22 mg, n = 6",0 n (%)
same,AE Agitation,"RE104 22 mg, n = 6",0 n (%)
same,AE Diarrhea,"RE104 22 mg, n = 6",1 (16.7) n (%)
same,AE Distress,"RE104 22 mg, n = 6",0 n (%)
same,AE Fatigue,"RE104 22 mg, n = 6",0 n (%)
same,AE Feeling hot,"RE104 22 mg, n = 6",1 (16.7) n (%)
same,AE Headache,"RE104 22 mg, n = 6",0 n (%)
same,AE Heart rate increased,"RE104 22 mg, n = 6",1 (16.7) n (%)
same,AE Hyperhidrosis,"RE104 22 mg, n = 6",1 (16.7) n (%)
same,AE Muscle twitching,"RE104 22 mg, n = 6",0 n (%)
same,AE Musculoskeletal injury,"RE104 22 mg, n = 6",0 n (%)
same,AE Nausea,"RE104 22 mg, n = 6",0 n (%)
same,AE Restlessness,"RE104 22 mg, n = 6",0 n (%)
same,AE Sinus tachycardia,"RE104 22 mg, n = 6",0 n (%)
same,AE Thirst,"RE104 22 mg, n = 6",0 n (%)
same,AE Tremor,"RE104 22 mg, n = 6",0 n (%)
same,AE Vomiting,"RE104 22 mg, n = 6",0 n (%)
same,AEs leading to,"RE104 22 mg, n = 6",0 n (%)
same,Any AE,"RE104 22 mg, n = 6",2 (33.3) n (%)
same,Any SAE,"RE104 22 mg, n = 6",0 n (%)
same,Severe AEs,"RE104 22 mg, n = 6",0 n (%)
same,AE Abdominal pain,"RE104 33 mg, n = 9",2 (22.2) n (%)
same,AE Agitation,"RE104 33 mg, n = 9",0 n (%)
same,AE Diarrhea,"RE104 33 mg, n = 9",0 n (%)
same,AE Distress,"RE104 33 mg, n = 9",0 n (%)
same,AE Fatigue,"RE104 33 mg, n = 9",2 (22.2) n (%)
same,AE Feeling hot,"RE104 33 mg, n = 9",0 n (%)
same,AE Headache,"RE104 33 mg, n = 9",1 (11.1) n (%)
same,AE Heart rate increased,"RE104 33 mg, n = 9",0 n (%)
same,AE Hyperhidrosis,"RE104 33 mg, n = 9",0 n (%)
same,AE Muscle twitching,"RE104 33 mg, n = 9",3 (33.3) n (%)
same,AE Musculoskeletal injury,"RE104 33 mg, n = 9",1 (11.1) n (%)
same,AE Nausea,"RE104 33 mg, n = 9",3 (33.3) n (%)
same,AE Restlessness,"RE104 33 mg, n = 9",3 (33.3) n (%)
same,AE Sinus tachycardia,"RE104 33 mg, n = 9",4 (44.4) n (%)
same,AE Thirst,"RE104 33 mg, n = 9",0 n (%)
same,AE Tremor,"RE104 33 mg, n = 9",1 (11.1) n (%)
same,AE Vomiting,"RE104 33 mg, n = 9",0 n (%)
same,AEs leading to,"RE104 33 mg, n = 9",0 n (%)
same,Any AE,"RE104 33 mg, n = 9",8 (88.9) n (%)
same,Any SAE,"RE104 33 mg, n = 9",0 n (%)
same,Severe AEs,"RE104 33 mg, n = 9",0 n (%)
same,AE Abdominal pain,"RE104 38 mg, n = 6",0 n (%)
same,AE Agitation,"RE104 38 mg, n = 6",2 (33.3) n (%)
same,AE Diarrhea,"RE104 38 mg, n = 6",2 (33.3) n (%)
same,AE Distress,"RE104 38 mg, n = 6",1 (16.7) n (%)
same,AE Fatigue,"RE104 38 mg, n = 6",0 n (%)
same,AE Feeling hot,"RE104 38 mg, n = 6",0 n (%)
same,AE Headache,"RE104 38 mg, n = 6",4 (66.7) n (%)
same,AE Heart rate increased,"RE104 38 mg, n = 6",0 n (%)
same,AE Hyperhidrosis,"RE104 38 mg, n = 6",1 (16.7) n (%)
same,AE Muscle twitching,"RE104 38 mg, n = 6",0 n (%)
same,AE Musculoskeletal injury,"RE104 38 mg, n = 6",0 n (%)
same,AE Nausea,"RE104 38 mg, n = 6",2 (33.3) n (%)
same,AE Restlessness,"RE104 38 mg, n = 6",3 (50.0) n (%)
same,AE Sinus tachycardia,"RE104 38 mg, n = 6",3 (50.0) n (%)
same,AE Thirst,"RE104 38 mg, n = 6",2 (33.3) n (%)
same,AE Tremor,"RE104 38 mg, n = 6",0 n (%)
same,AE Vomiting,"RE104 38 mg, n = 6",0 n (%)
same,AEs leading to,"RE104 38 mg, n = 6",0 n (%)
same,Any AE,"RE104 38 mg, n = 6",5 (83.3) n (%)
same,Any SAE,"RE104 38 mg, n = 6",0 n (%)
same,Severe AEs,"RE104 38 mg, n = 6",1 (16.7) n (%)
same,AE Abdominal pain,"RE104 44 mg, n = 3",0 n (%)
same,AE Agitation,"RE104 44 mg, n = 3",2 n (%)
same,AE Diarrhea,"RE104 44 mg, n = 3",0 n (%)
same,AE Distress,"RE104 44 mg, n = 3",1 n (%)
same,AE Fatigue,"RE104 44 mg, n = 3",0 n (%)
same,AE Feeling hot,"RE104 44 mg, n = 3",0 n (%)
same,AE Headache,"RE104 44 mg, n = 3",0 n (%)
same,AE Heart rate increased,"RE104 44 mg, n = 3",0 n (%)
same,AE Hyperhidrosis,"RE104 44 mg, n = 3",1 n (%)
same,AE Muscle twitching,"RE104 44 mg, n = 3",0 n (%)
same,AE Musculoskeletal injury,"RE104 44 mg, n = 3",0 n (%)
same,AE Nausea,"RE104 44 mg, n = 3",2 n (%)
same,AE Restlessness,"RE104 44 mg, n = 3",1 n (%)
same,AE Sinus tachycardia,"RE104 44 mg, n = 3",2 n (%)
same,AE Thirst,"RE104 44 mg, n = 3",0 n (%)
same,AE Tremor,"RE104 44 mg, n = 3",1 n (%)
same,AE Vomiting,"RE104 44 mg, n = 3",1 n (%)
same,AEs leading to,"RE104 44 mg, n = 3",0 n (%)
same,Any AE,"RE104 44 mg, n = 3",3 n (%)
same,Any SAE,"RE104 44 mg, n = 3",0 n (%)
same,Severe AEs,"RE104 44 mg, n = 3",1 n (%)
same,"sinus tachycardia, maximum recorded value",asymptomatic,115 beats per minute
